How the values were obtained:
[1] = system: kinases present in the cellular extracts (PBMC); test: Calcineurin kinetic experiments in PBMC cytosolic proteins in the presence or absence of kinase inhibitors (LC-MS/MS of DP-RII peptide); format: biochemical, human; details: 5 μg PBMC cytosolic proteins from healthy volunteers, FIG. 1; for production of DP-RII peptide vs control: 37° C., up to 120 min, 500 nM okadaic acid, ANOVA test
Protocol: FIG. 1: Calcineurin kinetic experiments were performed in the presence or absence of two different kinase inhibitors. The production of DP-RII peptide was quantified using LC-MS/MS analysis.
PBMCs obtained from either healthy volunteers or transplant patients were resuspended in a buffer containing 50 mM Tris, pH=7.0, 0.1 mM EGTA, 0.05 mM dithiothreitol, 0.1% tween 20, 0.3 mg/mL albumin, 1 mM MnCl2, 1 mM CaCl2 and protease inhibitors. These cellular extracts were sonicated on ice, and centrifuged for 30 minutes at 10.000 g at 4° C. The supernatants corresponding primarily to the cytosolic fractions were recovered and their protein content was determined. These cellular extracts can be stored at −80° C. for later measurement of CN activity.
One to 5 μg of proteins obtained from PBMC, prepared as described above, were used for measuring calcineurin activity in a reaction mixture containing 500 nM okadaic acid, 1 mg/L internal standard, 20 μM H89, 8 mg/L phosphorylated RII peptide and 0.03 units calmodulin in 15 μL 50 mM Tris-HCl, pH=7.0. Enzymatic reaction was carried out at 37° C. for 30 min and then, the reaction tubes were cooled on ice and the enzymatic reaction was stopped by addition of 15 μL of a solution of 5% trichloroacetic acid. After centrifugation for 5 minutes at 12.000 g at 4° C., supernatants were transferred to […] into 1.5 mL glass autoinjector vials and kept at 4° C. in autosampler before injection. […]
The inventors assessed the kinetics of calcineurin in the presence or not of 2 different kinase inhibitors: H89, an unspecific inhibitor and Rp-adenosine 3′,5′-cyclic monophosphorothioate, a specific inhibitor of PKA.
A first set of experiments was performed using 5 μg of PBMC cytosolic proteins issued from healthy volunteers. […] The enzymatic reactions were stopped at the indicated time points (up to 120 min) and peptide amounts were quantified by LC-MS/MS.

[2] = molecular target: protein phosphatase 1 (PP-1); details: cited from earlier work
[3] = molecular target: protein phosphatase 2A (PP-2A); details: cited from earlier work
[4] = molecular target: protein phosphatase 2B (PP-2B); details: cited from earlier work

Row | Compound | production of DP-RII peptide vs control [1] | inhibition obtained vs that obtained with the PKA specific inhibitor ([1]; p=0.0163) | IC50 [2] [nM] | IC50 [3] [nM] | IC50 [4] [µM]
1 | Nc1ncnc2c1ncn2[C@@H]1O[C@@H]2COP(O)(=S)O[C@H]2[C@H]1O (stereo partly drawn) [PKA specific inhibitor, Rp-adenosine 3′,5′-cyclic monophosphorothioate] | significantly higher | – | – | – | –
2 | O=S(=O)(NCCNC/C=C/c1ccc(Br)cc1)c1cccc2cnccc12 [H89] | significantly higher | significantly higher | – | – | –
3 | C=C1[C@@H](O)[C@@H]2O[C@]3(CC[C@H](/C=C/[C@@H](C)[C@@H]4CC(C)=C[C@@]5(O[C@H](C[C@@](C)(O)C(=O)O)CC[C@H]5O)O4)O3)CC[C@H]2O[C@@H]1[C@@H](O)C[C@H](C)[C@H]1O[C@@]2(CCCCO2)CC[C@H]1C [Okadaic acid, 9,10-Deepithio-9,10-didehydroacanthifolicin] | – | – | 20 to 100 | 0.1 to 1 | > 5

Reference: patent US9290792B2, “Method for measuring calcineurin activity” (UNIVERSITE PARIS DESCARTES, priority 2012, dated 2016)
